CC50 data for 30 molecules are collected here from US9518022B2, “Anti-HIV compounds” (priority 2014, dated 2016).

What is called CC50 is the concentration at which the toxic effect on the cells reaches its halfway point.

Where two headings read alike, the source gives them in different places.

The series in a line: Cytotoxicity assay (AlamarBlue) in mock infected MT-2 cells. The series is classed as cell-based. To be noted: human. On the procedure:
The present assay was used to screen candidate antiviral compounds by quantification of virus spread and production over several rounds of infection in vitro. MT-2, a HIV-1 permissive human T-cell line, was seeded in microtiter plates and was simultaneously treated with serially diluted compound and inoculated with a HIV-1 NL4-3 viral clone engineered to express Renilla luciferase in place of Nef. Following treatment, the culture was incubated for 96 hours. After the incubation, media was collected and used to estimate relative infectivity on the indicator cell line, TZM-bl. Additionally, viral spread was quantified by measuring luciferase activity via a commercially available luciferase substrate. In parallel, MT-2 cells were seeded and inoculated with mock virus in the presence of serially diluted compound. Compound toxicity was quantified 96 hours after treatment with AlamarBlue.
MT-2 (NIH Aids reagent program 237) cells were grown and maintained in an incubator at 37° C. with 5% CO2 using a basal medium of RPMI-1640 supplemented with 10% FBS. Cells were seeded in 100 μl at 2×10^4 cells/well in white walled 96-well microtiter plates. Candidate compounds were 3-fold serially diluted in the appropriate solvent. Solvent without compound was used as a no drug reference. Cells were inoculated at a multiplicity of 0.027 with an HIV-1 NL4-3 virus stock engineered to express Renilla luciferase in place of Nef. Diluted virus stock was first added to serially diluted compound. Compound and virus were delivered to cells in an equal volume (100 μl) and treated cultures were returned to the incubator for 96 hours. In parallel, plates for cytotoxicity estimates were prepared in the same way except cells were plated in clear walled 96-well microtiter plates and were mock infected.
At 96 hours post treatment, 20 μl AlamarBlue proliferation reagent was added to 200 μl treated and mock infected cultures and incubated for 3 hours at 37° C. with 5% CO2 then read at 545, 590 nm on fluorescence plate reader (Biotek).
For all assays, data was imported into Accelrys Assay Explorer 3.3. In Assay Explorer, % inhibition (antiviral or cytotoxicity) was calculated using the solvent control as a reference by the following equation: 1−(SignalCompound/SignalReference). The % Inhibition and compound concentration data was fitted using the following 4-parameter logistic model (Assay Explorer model 42):
[formula] where X is compound concentration, Y is % inhibition, D is the maximum % Inhibition (constrained to 100%), C is IC50 value or inflection point, B is the hill slope, and A is the minimum % inhibition (constrained to 0%). The IC50 value is reported as the EC50 or CC50 depending on the assay endpoint. EC50 represents the effective concentration at which virus replication is inhibited by 50 percent. CC50 represents the concentration that results in the death of 50 percent of the host cells. The selectivity or therapeutic index (SI or TI), is the ratio of CC50 over EC50 and represents the relative effectiveness in inhibiting viral replication compared to inducing cell death.
(Resazurin is reduced to fluorescent resorufin, in cell work by metabolically active cells.)

Where [1] appears, read: mock infected MT-2 cells, 96 hours, AlamarBlue, read-out: CC50.

The molecule `COc1cc2c(cc1OCc1ccccc1)CCNC2/C=C/c1ccc(-c2cccnc2)cc1` (stereo not drawn) [DJ, 6-(benzyloxy)-7-methoxy-1-[(E)-2-[4-(pyridin-3-yl)phenyl]ethenyl]-1,2,3,4-tetrahydroisoquinoline] returned a CC50 at 96 h of 5.86 µM.
As for `COc1cc2c(cc1OCc1ccccc1)CCNC2/C=C/c1ccc(-n2ccnc2)cc1` (stereo not drawn) [DK, 6-(benzyloxy)-1-[(E)-2-[4-(1H-imidazol-1-yl)phenyl]ethenyl]-7-methoxy-1,2,3,4-tetrahydroisoquinoline], half-maximal cytotoxicity (CC50 at 96 h) was put at 9.13 µM.
Molecule `COc1cc2c(cc1OCc1ccccc1)CCNC2/C=C/c1ccc2cccnc2c1` (stereo not drawn) [DL, 7-[(E)-2-[6-(benzyloxy)-7-methoxy-1,2,3,4-tetrahydroisoquinolin-1-yl]ethenyl]quinoline] yielded a CC50 at 96 h of 7 µM.
On to `COc1cc2c(cc1OCc1ccccc1)CCNC2/C=C/c1ccc(-n2ccnc2C)cc1` (stereo not drawn) [DM, 6-(benzyloxy)-7-methoxy-1-[(E)-2-[4-(2-methyl-1H-imidazol-1-yl)phenyl]ethenyl]-1,2,3,4-tetrahydroisoquinoline], for which it took 21.1 µM to reach half-maximal cytotoxicity (CC50 at 96 h).
Take `COc1cccc(-c2ncc(/C=C/C3NCCc4cc(OCc5ccccc5)c(OC)cc43)cn2)c1` (stereo not drawn) [DN, 6-(benzyloxy)-7-methoxy-1-[(E)-2-[2-(3-methoxyphenyl)pyrimidin-5-yl]ethenyl]-1,2,3,4-tetrahydroisoquinoline]: the CC50 at 96 h amounted to 17.1 µM.
Molecule `CCN1CCN(c2ccc(/C=C/C3NCCc4cc(OCc5ccccc5)c(OC)cc43)cc2)CC1` (stereo not drawn) [DO, 6-(benzyloxy)-1-[(E)-2-[4-(4-ethylpiperazin-1-yl)phenyl]ethenyl]-7-methoxy-1,2,3,4-tetrahydroisoquinoline] returned a CC50 at 96 h of 3.61 µM.
`COc1cc2c(cc1OCc1ccccc1)CCNC2/C=C/c1cn(C)c2ncccc12` (stereo not drawn) [DP, 6-(benzyloxy)-7-methoxy-1-[(E)-2-{1-methyl-1H-pyrrolo[2,3-b]pyridin-3-yl}ethenyl]-1,2,3,4-tetrahydroisoquinoline] gave a half-maximal cytotoxic concentration (CC50) at 96 h of 1.3 µM.
Molecule `COc1cc2c(cc1OCc1ccccc1)CCNC2/C=C/c1cccc(-c2ccncc2)c1` (stereo not drawn) [DQ, 6-(benzyloxy)-7-methoxy-1-[(E)-2-[3-(pyridin-4-yl)phenyl]ethenyl]-1,2,3,4-tetrahydroisoquinoline] returned a CC50 at 96 h of 4.4 µM.
On the same count and under the same terms, then `COc1cc2c(cc1OCc1ccccc1)CCNC2/C=C/c1cscn1` (stereo not drawn) [DR, 6-(benzyloxy)-7-methoxy-1-[(E)-2-(1,3-thiazol-4-yl)ethenyl]-1,2,3,4-tetrahydroisoquinoline], with 25.4 µM; and `COc1cc2c(cc1OCc1ccccc1)CCNC2/C=C/c1ccc(-c2cncnc2)cc1` (stereo not drawn) [DS, 6-(benzyloxy)-7-methoxy-1-[(E)-2-[4-(pyrimidin-5-yl)phenyl]ethenyl]-1,2,3,4-tetrahydroisoquinoline], with 7.39 µM.
As to `COc1cc2c(cc1OCc1ccccc1)CCNC2/C=C/c1ccc(-n2cncn2)cc1` (stereo not drawn) [DT, 6-(benzyloxy)-7-methoxy-1-[(E)-2-[4-(1H-1,2,4-triazol-1-yl)phenyl]ethenyl]-1,2,3,4-tetrahydroisoquinoline], the midpoint of cytotoxicity, the CC50 at 96 h, lay at 7.39 µM.
Turning to `COc1cc2c(cc1OCc1ccccc1)CCNC2/C=C/c1cc2ccccc2s1` (stereo not drawn) [DU, 1-[(E)-2-(1-benzothiophen-2-yl)ethenyl]-6-(benzyloxy)-7-methoxy-1,2,3,4-tetrahydroisoquinoline], it took 16.3 µM to reach half-maximal cytotoxicity (CC50 at 96 h).
The molecule `COc1cc2c(cc1OCc1ccccc1)CCNC2/C=C/c1nccs1` (stereo not drawn) [DV, 6-(benzyloxy)-7-methoxy-1-[(E)-2-(1,3-thiazol-2-yl)ethenyl]-1,2,3,4-tetrahydroisoquinoline] registered a CC50 at 96 h of 21.8 µM.
`COc1cc2c(cc1OCc1ccccc1)CCNC2/C=C/c1ccc(N2CCN(C)CC2)cc1` (stereo not drawn) [DW, 6-(benzyloxy)-7-methoxy-1-[(E)-2-[4-(4-methylpiperazin-1-yl)phenyl]ethenyl]-1,2,3,4-tetrahydroisoquinoline] displayed a CC50 at 96 h of 2.31 µM.
On the same count and under the same terms, then `COc1cc2c(cc1OCc1ccccc1)CCNC2/C=C/c1ccccc1N1CCCCC1` (stereo not drawn) [DX, 6-(benzyloxy)-7-methoxy-1-[(E)-2-[2-(piperidin-1-yl)phenyl]ethenyl]-1,2,3,4-tetrahydroisoquinoline], with 5.38 µM; and `COc1cc2c(cc1OCc1ccccc1)CCNC2/C=C/c1scnc1C` (stereo not drawn) [DY, 6-(benzyloxy)-7-methoxy-1-[(E)-2-(4-methyl-1,3-thiazol-5-yl)ethenyl]-1,2,3,4-tetrahydroisoquinoline], with 21.6 µM.
The same measure, in the same setting: then `COc1cc2c(cc1OCc1ccccc1)CCNC2/C=C/c1ccc(-c2ccccn2)cc1` (stereo not drawn) [DZ, 6-(benzyloxy)-7-methoxy-1-[(E)-2-[4-(pyridin-2-yl)phenyl]ethenyl]-1,2,3,4-tetrahydroisoquinoline], with 5.8 µM; and `COc1cc2c(cc1OCc1ccccc1)CCNC2/C=C/c1ccc(N2CCCCC2)cc1` (stereo not drawn) [EA, 6-(benzyloxy)-7-methoxy-1-[(E)-2-[4-(piperidin-1-yl)phenyl]ethenyl]-1,2,3,4-tetrahydroisoquinoline], with 4.8 µM.
`COc1cc2occc2cc1/C=C/C1NCCc2cc(OCc3ccccc3)c(OC)cc21` (stereo not drawn) [EB, 6-(benzyloxy)-7-methoxy-1-[(E)-2-(6-methoxy-1-benzofuran-5-yl)ethenyl]-1,2,3,4-tetrahydroisoquinoline]: the CC50 at 96 h turned out to be 6 µM.
The same measure, in the same setting: then `COc1cc2c(cc1OCc1ccccc1)CCNC2/C=C/c1cccc(-c2ncco2)c1` (stereo not drawn) [EC, 6-(benzyloxy)-7-methoxy-1-[(E)-2-[3-(1,3-oxazol-2-yl)phenyl]ethenyl]-1,2,3,4-tetrahydroisoquinoline], with 7.5 µM.
Molecule `COc1cc2c(cc1OCc1ccccc1)CCNC2/C=C/c1ccc(-c2ncco2)cc1` (stereo not drawn) [ED, 6-(benzyloxy)-7-methoxy-1-[(E)-2-[4-(1,3-oxazol-2-yl)phenyl]ethenyl]-1,2,3,4-tetrahydroisoquinoline] registered a CC50 at 96 h of 7.5 µM.
Regarding `CCOC(=O)c1coc(-c2ccc(/C=C/C3NCCc4cc(OCc5ccccc5)c(OC)cc43)cc2)n1` (stereo not drawn) [EE, ethyl 2-{4-[(E)-2-[6-(benzyloxy)-7-methoxy-1,2,3,4-tetrahydroisoquinolin-1-yl]ethenyl]phenyl}-1,3-oxazole-4-carboxylate], the CC50 at 96 h was 5.9 µM.
Consider `CCOC(=O)c1coc(-c2cccc(/C=C/C3NCCc4cc(OCc5ccccc5)c(OC)cc43)c2)n1` (stereo not drawn) [EF, ethyl 2-{3-[(E)-2-[6-(benzyloxy)-7-methoxy-1,2,3,4-tetrahydroisoquinolin-1-yl]ethenyl]phenyl}-1,3-oxazole-4-carboxylate], for which the CC50 at 96 h is 5.9 µM.
In the case of `COc1cc2c(cc1OCc1ccccc1)CCNC2/C=C/c1ccc2c(c1)OCC2` (stereo not drawn) [EG, 6-(benzyloxy)-1-[(E)-2-(2,3-dihydro-1-benzofuran-6-yl)ethenyl]-7-methoxy-1,2,3,4-tetrahydroisoquinoline], the CC50 at 96 h is 19.3 µM.
As to `COc1cc(OC)c(/C=C/C2NCCc3cc(OCc4ccccc4)c(OC)cc32)cc1C` (stereo not drawn) [EH, 6-(benzyloxy)-1-[(E)-2-(2,4-dimethoxy-5-methylphenyl)ethenyl]-7-methoxy-1,2,3,4-tetrahydroisoquinoline], the CC50 at 96 h turned out to be 3.59 µM.
Same read-out and setting: the same measure for `COc1ccc(/C=C/C2NCCc3cc(OCc4ccccc4)c(OC)cc32)cc1C` (stereo not drawn) [EI, 6-(benzyloxy)-7-methoxy-1-[(E)-2-(4-methoxy-3-methylphenyl)ethenyl]-1,2,3,4-tetrahydroisoquinoline]: 11.8 µM.
In the case of `COc1cccc(/C=C/C2NCCc3cc(OCc4ccccc4)c(OC)cc32)c1` (stereo not drawn) [EJ, 6-(benzyloxy)-7-methoxy-1-[(E)-2-(3-methoxyphenyl)ethenyl]-1,2,3,4-tetrahydroisoquinoline], under setting [1], the CC50 at 96 h is 10 µM.
For the molecule `COc1ccc(OC)c(/C=C/C2NCCc3cc(OCc4ccccc4)c(OC)cc32)c1` (stereo not drawn) [EK, 6-(benzyloxy)-1-[(E)-2-(2,5-dimethoxyphenyl)ethenyl]-7-methoxy-1,2,3,4-tetrahydroisoquinoline], under setting [1], the CC50 at 96 h is 3.6 µM.
`COc1cc2c(cc1OCc1ccccc1)CCNC2/C=C/c1ccc(OC)c(C)c1C` (stereo not drawn) [EL, 6-(benzyloxy)-7-methoxy-1-[(E)-2-(4-methoxy-2,3-dimethylphenyl)ethenyl]-1,2,3,4-tetrahydroisoquinoline]: half-maximal cytotoxicity (CC50 at 96 h) was put at 3.25 µM.
The same measure, in the same setting: then `COc1ccc(/C=C/C2NCCc3cc(OCc4ccccc4)c(OC)cc32)cc1CN1CCCCC1` (stereo not drawn) [EM, 6-(benzyloxy)-7-methoxy-1-[(E)-2-[4-methoxy-3-(piperidin-1-ylmethyl)phenyl]ethenyl]-1,2,3,4-tetrahydroisoquinoline], with 1.8 µM.
